{"source": "patent US20230192720A1", "about": "“MACROCYCLIC COMPOUNDS” (ZENO MANAGEMENT, INC., priority 2019, published 2023)", "data": [{"tested_on": "NCI-H929 cells", "experiment": "NCI-H929 cell proliferation assay (CellTiter-Glo)", "type": "cell-based", "settings": "72 h compound treatment", "description": "(§1) NCI-H929 Cell Proliferation Assay\n(§2) Cell proliferation was measured using the CellTiter-Glo® Luminescent Cell Viability Assay. The assay involved the addition of a single reagent (CellTiter-Glo® Reagent) directly to cells cultured in serum-supplemented medium. NCI-H929 (ATCC CRL-9068) cells were cultured according to ATCC recommendations and were seeded at 3,000 cells per well.\n(§3) Each compound evaluated was prepared as a DMSO stock solution (10 mM). Compounds were tested in duplicate on each plate, with a 10-point serial dilution curve (1:3 dilution). Compound treatment ([…]) was added from the compound dilution plate to the cell plate. The highest compound concentration was 10 μM (final), with a 0.1% final DMSO concentration. Plates were then incubated at 37° C., 5% CO2. After 72 h of compound treatment, cell plates were equilibrated at rt for approximately 30 mins. An equi-volume amount of CellTiter-Glo® Reagent (40 μL) was added to each well. Plates were mixed for 2 mins on an orbital shaker to induce cell lysis and then incubated at rt for 10 mins to stabilize the luminescent signal. Luminescence was recorded using an Envision plate reader according to CellTiter-Glo protocol. IC50 of each compound was calculated using GraphPad Prism by nonlinear regression analysis.", "units": {"IC50": "nM"}, "values": [{"smiles": "CN1Cc2cc(n(C)n2)CCc2cc3c(c(c2)OCCCc2c(C(=O)O)n(C)c4c(c(Cl)ccc24)-c2c(nn4c2CCC4)C1)NCCC3", "note": "(atropisomer, axis not shown; (Sa)) [Example 5B, (Sa)-(−)-(Z)-1^6-Chloro-1^1,6^1,4-trimethyl-2^5,2^6,9^1,9^2,9^3,9^4-hexahydro-1^1H,2^4H,6^1H-10-oxa-4-aza-9(6,8)-quinolina-1(7,3)-indola-2(3,2)-pyrrolo[1,2-b]pyrazola-6(3,5)-pyrazolacyclotridecaphane-1^2-carboxylic acid]", "IC50": "≥ 1000"}, {"smiles": "CN1Cc2cc(n(C)n2)CCc2cc3c(c(c2)OCCCc2c(C(=O)O)n(C)c4c(c(Cl)ccc24)-c2c(nn4c2CCCC4)C1)NCCC3", "note": "(atropisomer, axis not shown; (Sa)) [Example 6B, (Sa)-(−)-(Z)-1^6-Chloro-1^1,6^1,4-trimethyl-2^4,2^5,2^6,2^7,9^1,9^2,9^3,9^4-octahydro-1^1H,6^1H-10-oxa-4-aza-9(6,8)-quinolina-2(3,2)-pyrazolo[1,5-a]pyridina-1(7,3)-indola-6(3,5)-pyrazolacyclotridecaphane-1^2-carboxylic acid]", "IC50": "≥ 1000"}, {"smiles": "Cn1nc2cc1CSc1cc3c(c(c1)OCCCc1c(C(=O)O)n(C)c4c(c(F)ccc14)-c1c(nn4c1CCCC4)CSC2)NCCC3", "note": "(atropisomer, axis not shown; (Sa)) [Example 8B, (Sa)-(−)-(Z)-1^6-Fluoro-1^1,6^1-dimethyl-2^4,2^5,2^6,2^7,9^1,9^2,9^3,9^4-octahydro-1^1H,6^1H-10-oxa-4,8-dithia-9(6, 8)-quinolina-2(3,2)-pyrazolo[1,5-a]pyridina-1(7,3)-indola-6(3,5)-pyrazolacyclotridecaphane-1^2-carboxylic acid]", "IC50": "100 to 1000"}, {"smiles": "Cc1nn(C23CC(C2)C3)c2c1-c1c(Cl)ccc3c(c(C(=O)O)n(C)c13)CCCOc1cc(cc3c1NCCC3)SCc1cc(nn1C)CSC2", "note": "(atropisomer, axis not shown; (Sa)) [Example 9B, (Sa)-(−)-(Z)-2^1-(Bicyclo[1.1.1]pentan-1-yl)-1^6-chloro-1^1,2^3,6^1-trimethyl-9^1,9^2,9^3,9^4-tetrahydro-1^1H,2^1H,6^1H-10-oxa-4,8-dithia-9(6,8)-quinolina-1(7,3)-indola-2(4,5),6(3,5)-dipyrazolacyclotridecaphane-1^2-carboxylic acid]", "IC50": "≤ 100"}, {"smiles": "Cc1nn(C23CC(C2)C3)c2c1-c1c(F)ccc3c(c(C(=O)O)n(C)c13)CCCOc1cc(cc3c1NCCC3)SCc1cc(nn1C)CSC2", "note": "(atropisomer, axis not shown; (Sa)) [Example 10B, (Sa)-(−)-(Z)-2^1-(Bicyclo[1.1.1]pentan-1-yl)-1^6-fluoro-1^1,2^3,6^1-trimethyl-9^1,9^2,9^3,9^4-tetrahydro-1^1H,2^1H,6^1H-10-oxa-4,8-dithia-9(6,8)-quinolina-1(7,3)-indola-2(4,5),6(3,5)-dipyrazolacyclotridecaphane-1^2-carboxylic acid]", "IC50": "≤ 100"}, {"smiles": "CCn1nc(C)c2c1CSCc1cc(n(C)n1)CSc1cc3c(c(c1)OCCCc1c(C(=O)O)n(C)c4c-2c(Cl)ccc14)NCCC3", "note": "(atropisomer, axis not shown; (Sa)) [Example 14B, (Sa)-(−)-(Z)-1^6-Chloro-2^1-ethyl-1^1,2^3,6^1-trimethyl-9^1,9^2,9^3,9^4-tetrahydro-1^1H,2^1H,6^1H-10-oxa-4,8-dithia-9(6,8)-quinolina-1(7,3)-indola-2(4,5),6(3,5)-dipyrazolacyclotridecaphane-1^2-carboxylic acid]", "IC50": "≥ 1000"}]}, {"tested_on": "NCI-H929 cells", "experiment": "NCI-H929 cell proliferation assay (CellTiter-Glo)", "type": "cell-based", "settings": "Homo sapiens, NCI-H929, 72 h, 72 h compound treatment", "description": "as §1, §2, §3", "units": {"IC50": "nM"}, "values": [{"smiles": "Cn1nc2cc1CSc1cc3c(c(c1)OCCCc1c(C(=O)O)n(C)c4c(c(Cl)ccc14)-c1c(nn4c1CCC4)CSC2)NCCC3", "note": "(single isomer, unassigned) [Example 1A, (Ra)-(+)-(Z)-1^6-Chloro-1^1,6^1-dimethyl-2^5,2^6,9^1,9^2,9^3,9^4-hexahydro-1^1H,2^4H,6^1H-10-oxa-4,8-dithia-9(6,8)-quinolina-1(7,3)-indola-2(3,2)-pyrrolo[1,2-b]pyrazola-6(3,5)-pyrazolacyclotridecaphane-1^2-carboxylic acid]", "IC50": "≤ 100"}, {"smiles": "Cn1nc2cc1CSc1cc3c(c(c1)OCCCc1c(C(=O)O)n(C)c4c(c(Cl)ccc14)-c1c(nn4c1CCCC4)CSC2)NCCC3", "note": "(single isomer, unassigned) [Example 2A, (Ra)-(+)-(Z)-1^6-chloro-1^1,6^1-dimethyl-2^4,2^5,2^6,2^7,9^1,9^2,9^3,9^4-octahydro-1^1H,6^1H-10-oxa-4,8-dithia-9(6,8)-quinolina-2(3 ,2)-pyrazolo[1,5-a]pyridina-1(7 ,3)-indola-6(3,5)-pyrazolacyclotridecaphane-1^2-carboxylic acid]", "IC50": "≤ 100"}, {"smiles": "CO[C@H]1/C=C/C[C@H](C)[C@@H](C)S(=O)(=O)NC(=O)c2ccc3c(c2)N(C[C@@H]2CC[C@H]21)C[C@@]1(CCCc2cc(Cl)ccc21)CO3", "note": "[AMG176, reference compound]", "IC50": "100 to 1000"}, {"smiles": "Cc1c2c(nn1C)CSCc1cc(n(C)n1)CSc1cc(c3ccccc3c1)OCCCc1c(C(=O)O)n(C)c3c-2c(Cl)ccc13", "note": "[AZD5991, reference compound]", "IC50": "≤ 100"}]}, {"molecular_target": "Mcl-1 (Homo sapiens, UniProt Q07820)", "sequence (Q07820 whole entry)": "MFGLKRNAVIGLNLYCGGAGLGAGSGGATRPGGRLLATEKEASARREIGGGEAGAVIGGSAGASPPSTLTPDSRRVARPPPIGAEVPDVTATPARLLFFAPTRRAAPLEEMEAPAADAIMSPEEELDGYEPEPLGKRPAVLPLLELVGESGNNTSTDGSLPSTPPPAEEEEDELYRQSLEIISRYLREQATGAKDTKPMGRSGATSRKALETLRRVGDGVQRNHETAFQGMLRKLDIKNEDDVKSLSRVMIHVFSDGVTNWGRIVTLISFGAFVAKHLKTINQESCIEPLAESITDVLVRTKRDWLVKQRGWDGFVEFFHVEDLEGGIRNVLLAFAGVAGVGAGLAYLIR", "experiment": "Mcl-1 Homogeneous Time Resolved Fluorescence (HTRF) binding assay", "settings": "not given", "units": {"IC50": "nM"}, "values": [{"smiles": "Cn1nc2cc1CSc1cc3c(c(c1)OCCCc1c(C(=O)O)n(C)c4c(c(Cl)ccc14)-c1c(nn4c1CCC4)CSC2)NCCC3", "note": "(single isomer, unassigned) [Example 1A, (Ra)-(+)-(Z)-1^6-Chloro-1^1,6^1-dimethyl-2^5,2^6,9^1,9^2,9^3,9^4-hexahydro-1^1H,2^4H,6^1H-10-oxa-4,8-dithia-9(6,8)-quinolina-1(7,3)-indola-2(3,2)-pyrrolo[1,2-b]pyrazola-6(3,5)-pyrazolacyclotridecaphane-1^2-carboxylic acid]", "IC50": "< 10"}, {"smiles": "Cn1nc2cc1CSc1cc3c(c(c1)OCCCc1c(C(=O)O)n(C)c4c(c(Cl)ccc14)-c1c(nn4c1CCCC4)CSC2)NCCC3", "note": "(single isomer, unassigned) [Example 2A, (Ra)-(+)-(Z)-1^6-chloro-1^1,6^1-dimethyl-2^4,2^5,2^6,2^7,9^1,9^2,9^3,9^4-octahydro-1^1H,6^1H-10-oxa-4,8-dithia-9(6,8)-quinolina-2(3 ,2)-pyrazolo[1,5-a]pyridina-1(7 ,3)-indola-6(3,5)-pyrazolacyclotridecaphane-1^2-carboxylic acid]", "IC50": "< 10"}]}]}
